The record followed here is ChEMBL document CHEMBL5505979, “Novel aminothiazoximone-corbelled ethoxycarbonylpyrimidones with antibiofilm activity to conquer Gram-negative bacteria through potential multitargeting effects” (Eur J Med Chem, 2024).

The MIC is the smallest concentration in the dilution series that meets the test's criterion for growth inhibition.

Holding throughout (type): functional
For assay [1], the system named is Staphylococcus aureus. The assay is described as follows: Anti-bacterial activity against methicillin-resistant Staphylococcus aureus N315 assessed as inhibition of bacterial growth. The note with it: Staphylococcus aureus, N315; read-out: MIC.
For assay [2], the system named is Staphylococcus aureus. The assay is described as follows: Anti-bacterial activity against methicillin-resistant Staphylococcus aureus ATCC 43300 assessed as inhibition of bacterial growth. The note with it: Staphylococcus aureus, ATCC 43300; read-out: MIC.
The test system of assay [3] is Enterococcus faecalis. Put plainly: Anti-bacterial activity against Enterococcus faecalis V583 assessed as inhibition of bacterial growth.
Assay [4] has as its system Klebsiella pneumoniae. The assay is described as follows: Anti-bacterial activity against Klebsiella pneumoniae KPN325 assessed as inhibition of bacterial growth. The note with it: Klebsiella pneumoniae, KPN325; read-out: MIC.
For assay [5], the system named is Staphylococcus aureus. The assay is described as follows: Anti-bacterial activity against Staphylococcus aureus ATCC 1708 assessed as inhibition of bacterial growth. The note with it: Staphylococcus aureus, ATCC 1708; read-out: MIC.
The subject of assay [6] is Staphylococcus aureus. The assay is described as follows: Anti-bacterial activity against Staphylococcus aureus ATCC 25923 assessed as inhibition of bacterial growth. The note with it: Staphylococcus aureus, ATCC 25923; read-out: MIC.
For assay [7], the system named is Staphylococcus aureus. The assay is described as follows: Anti-bacterial activity against Staphylococcus aureus ATCC 29213 assessed as inhibition of bacterial growth. The note with it: Staphylococcus aureus, ATCC 29213; read-out: MIC.
Assay [8] relates to Staphylococcus aureus. Put plainly: Anti-bacterial activity against Staphylococcus aureus ATCC 12600 assessed as inhibition of bacterial growth. The note with it: Staphylococcus aureus, ATCC 12600; read-out: MIC.
Assay [9] has as its system Staphylococcus aureus. Put plainly: Anti-bacterial activity against Staphylococcus aureus ATCC 6538 assessed as inhibition of bacterial growth.
For assay [10], the system named is Staphylococcus aureus. The assay is described as follows: Anti-bacterial activity against Staphylococcus aureus CMCC (B) 26003 assessed as inhibition of bacterial growth.
In assay [11] the test system is Staphylococcus aureus. The assay is described as follows: Anti-bacterial activity against Staphylococcus aureus CMCC (B) 26001 assessed as inhibition of bacterial growth.
For assay [12], the system named is Escherichia coli. Put plainly: Anti-bacterial activity against Escherichia coli JM109 assessed as inhibition of bacterial growth.
Assay [13] concerns Escherichia coli. Put plainly: Anti-bacterial activity against Escherichia coli ATCC 25922 assessed as inhibition of bacterial growth.
The test system of assay [14] is Pseudomonas aeruginosa. Put plainly: Anti-bacterial activity against Pseudomonas aeruginosa ST235 assessed as inhibition of bacterial growth. The note with it: Pseudomonas aeruginosa, ST235; read-out: MIC.
Assay [15] deals with Pseudomonas aeruginosa. Put plainly: Anti-bacterial activity against Pseudomonas aeruginosa ATCC 27853 assessed as inhibition of bacterial growth. The note with it: Pseudomonas aeruginosa, ATCC 27853; read-out: MIC.
Assay [16] deals with Pseudomonas aeruginosa. Put plainly: Anti-bacterial activity against Pseudomonas aeruginosa ATCC 15442 assessed as inhibition of bacterial growth. The note with it: Pseudomonas aeruginosa, ATCC 15442; read-out: MIC.
Assay [17] relates to Pseudomonas aeruginosa. The assay is described as follows: Anti-bacterial activity against Pseudomonas aeruginosa ATCC 9027 assessed as inhibition of bacterial growth.
Assay [18] has as its system Pseudomonas aeruginosa. The assay is described as follows: Anti-bacterial activity against Pseudomonas aeruginosa CMCC (B) 10104 assessed as inhibition of bacterial growth. The note with it: Pseudomonas aeruginosa, CMCC (B) 10104; read-out: MIC.
The test system of assay [19] is Acinetobacter baumannii. The assay is described as follows: Anti-bacterial activity against Acinetobacter baumannii R674 assessed as inhibition of bacterial growth.
The test system of assay [20] is Candida albicans. Put plainly: Anti-fungal activity against Candida albicans assessed as inhibition of fungal growth. The note with it: Candida albicans; read-out: MIC.
Assay [21] has as its system Candida albicans. The assay is described as follows: Anti-fungal activity against Candida albicans 90023 assessed as inhibition of fungal growth.
Assay [22] has as its system Candida tropicalis. Put plainly: Anti-fungal activity against Candida tropicalis assessed as inhibition of fungal growth. The note with it: Candida tropicalis; read-out: MIC.
The test system of assay [23] is Candida parapsilosis. Put plainly: Anti-fungal activity against Candida parapsilosis assessed as inhibition of fungal growth. The note with it: Lodderomyces parapsilosis; read-out: MIC.

SMILES strings stand for the structures. ≈ marks a conversion by molar mass, not a printed value.

For `CCOC(=O)C1=C(CN2CCN(C(=O)/C(=N/OC)c3csc(N)n3)CC2)NC(=O)NC1c1ccc(OC)cc1` (configuration not stated), the minimal inhibitory concentration (MIC) worked out at 230 µM (≈ 128 µg/mL) in assay [1]; 115 µM (≈ 64.1 µg/mL) in [2]; 58 µM (≈ 32.3 µg/mL) in assay [3]; 230 µM (≈ 128 µg/mL) in assay [4]; 115 µM (≈ 64.1 µg/mL) in [5]; 230 µM (≈ 128 µg/mL) in assay [6]. Moreover, the MIC in [7] was found to be 115 µM (≈ 64.1 µg/mL); in assay [8] it was 230 µM (≈ 128 µg/mL); in assay [9], 115 µM (≈ 64.1 µg/mL); in assay [10], 115 µM (≈ 64.1 µg/mL); in [11], 58 µM (≈ 32.3 µg/mL); in [12], 115 µM (≈ 64.1 µg/mL). The MIC in assay [13], in [14], in [15], in assay [16], in assay [17] and in [18] was 230 µM (≈ 128 µg/mL) each time. The MIC came to 115 µM (≈ 64.1 µg/mL) in assay [19]; 470 µM (≈ 262 µg/mL) in [20]; 7 µM (≈ 3.9 µg/mL) in assay [21]; 470 µM (≈ 262 µg/mL) in assay [22]; 470 µM (≈ 262 µg/mL) in assay [23].
For `CCOC(=O)C1=C(CN2CCN(C(=O)/C(=N/OC)c3csc(N)n3)CC2)NC(=O)NC1c1ccc(F)cc1` (configuration not stated), the minimum inhibitory concentration (MIC) amounted to 117 µM (≈ 63.8 µg/mL) in assay [1]; 59 µM (≈ 32.2 µg/mL) in assay [2]; 29 µM (≈ 15.8 µg/mL) in [3]; 117 µM (≈ 63.8 µg/mL) in assay [4]; 117 µM (≈ 63.8 µg/mL) in assay [5]; 59 µM (≈ 32.2 µg/mL) in [6]. Further, the MIC in assay [7] is 59 µM (≈ 32.2 µg/mL); in assay [8], 59 µM (≈ 32.2 µg/mL); in assay [9] it was 117 µM (≈ 63.8 µg/mL); in [10], 235 µM (≈ 128 µg/mL); in assay [11], 59 µM (≈ 32.2 µg/mL); in assay [12] it was 117 µM (≈ 63.8 µg/mL). The MIC in [13] was determined as 59 µM (≈ 32.2 µg/mL); in assay [14] it was 117 µM (≈ 63.8 µg/mL); in assay [15] it was 117 µM (≈ 63.8 µg/mL); in assay [16] it was 59 µM (≈ 32.2 µg/mL); in assay [17], 117 µM (≈ 63.8 µg/mL); in [18] it was 117 µM (≈ 63.8 µg/mL). Moreover, the MIC in assay [19] stood at 59 µM (≈ 32.2 µg/mL); in assay [20] it was 447 µM (≈ 244 µg/mL); in assay [21], 6 µM (≈ 3.27 µg/mL); in [22], 447 µM (≈ 244 µg/mL); in assay [23], 447 µM (≈ 244 µg/mL).
As to `CCOC(=O)C1=C(CN2CCN(C(=O)/C(=N/OC)c3csc(N)n3)CC2)NC(=O)NC1c1nccs1` (configuration not stated), the MIC in assay [1] is 240 µM (≈ 128 µg/mL); in [2], 120 µM (≈ 64.2 µg/mL); in assay [3] it was 240 µM (≈ 128 µg/mL); in assay [4], 240 µM (≈ 128 µg/mL); in [5], 240 µM (≈ 128 µg/mL); in [6], 240 µM (≈ 128 µg/mL). Moreover, the MIC in [7] was 479 µM (≈ 256 µg/mL); in assay [8] it was 120 µM (≈ 64.2 µg/mL); in assay [9], 120 µM (≈ 64.2 µg/mL); in assay [10], 240 µM (≈ 128 µg/mL); in assay [11] it was 60 µM (≈ 32.1 µg/mL); in assay [12], 240 µM (≈ 128 µg/mL). In addition, the MIC in assay [13] stood at 60 µM (≈ 32.1 µg/mL); in [14], 30 µM (≈ 16 µg/mL); in assay [15], 15 µM (≈ 8.02 µg/mL); in assay [16], 120 µM (≈ 64.2 µg/mL); in assay [17] it was 60 µM (≈ 32.1 µg/mL); in assay [18], 240 µM (≈ 128 µg/mL). Moreover, the MIC was found to be 479 µM (≈ 256 µg/mL) in assay [19]; 479 µM (≈ 256 µg/mL) in assay [20]; 60 µM (≈ 32.1 µg/mL) in [21]; 60 µM (≈ 32.1 µg/mL) in assay [22]; 479 µM (≈ 256 µg/mL) in [23].
Take `CCCCc1nc(Cl)c(C2NC(=O)NC(CN3CCN(CC(=O)c4ccc(Cl)cc4)CC3)=C2C(=O)OCC)[nH]1` (configuration not stated): the MIC was determined as 222 µM (≈ 128 µg/mL) in [1]; 56 µM (≈ 32.3 µg/mL) in assay [2]; 222 µM (≈ 128 µg/mL) in assay [3]; 222 µM (≈ 128 µg/mL) in assay [4]; 444 µM (≈ 256 µg/mL) in assay [5]; 222 µM (≈ 128 µg/mL) in [6]. Besides, the MIC in [7] was determined as 56 µM (≈ 32.3 µg/mL); in assay [8] it was 56 µM (≈ 32.3 µg/mL); in [9], 444 µM (≈ 256 µg/mL); in assay [10], 56 µM (≈ 32.3 µg/mL); in assay [11], 28 µM (≈ 16.2 µg/mL); in assay [12] it was 222 µM (≈ 128 µg/mL). Also, the MIC in [13] is 111 µM (≈ 64.1 µg/mL); in [14], 111 µM (≈ 64.1 µg/mL); in assay [15], 111 µM (≈ 64.1 µg/mL); in assay [16], 111 µM (≈ 64.1 µg/mL); in assay [17], 28 µM (≈ 16.2 µg/mL); in [18], 56 µM (≈ 32.3 µg/mL). In addition, the MIC in assay [19] is 111 µM (≈ 64.1 µg/mL); in [20], 444 µM (≈ 256 µg/mL); in [21] it was 14 µM (≈ 8.09 µg/mL); in [22] it was 444 µM (≈ 256 µg/mL); in [23], 444 µM (≈ 256 µg/mL).
